The record followed here is patent US8993595B2, “Macrocyclic serine protease inhibitors” (priority 2009, dated 2015).

The term EC50 denotes the midpoint of the concentration-response curve. One may read the IC50 as the concentration at which inhibition is half-maximal.

Each structure is given as a SMILES string.

The subject of data set [1] is JFH-1 (genotype 2a) virus in HPC cells. Put plainly: HCV in vitro infection core ELISA assay. The class given is cell-based. Here is the method:
HPC cells were infected with JFH-1 (genotype 2a) and treated with the compound for 4 days (virus inoculum was removed after 16 hrs). Remaining virus was measured by an anti-HCV core ELISA. Compound cytotoxicity was also measured in parallel using a colorimetric proliferation assay as described in Example 5.
The HCV in vitro infection core ELISA assay measures the ability of a test compound to inhibit replication of an infectious HCV (strain JFH-1; genotype 2a) in cell culture. […] We have developed this model for determining the efficacy of antiviral compounds against an infectious virus in vitro using HCV producing cells (HPC), a proprietary Huh-7-derived cell sublineage capable of propagating the JFH-1 HCV virus. The readout of the assay is quantification of HCV core protein by ELISA 5 days post infection with JFH-1 virus and treatment with a test compound. […]
OPD solution was prepared using 1 OPD tablet+12 mL citrate/phosphate buffer (16 mM citric acid, 27 mM Na2HPO4) plus 5 μL 30% H2O2 per plate. […] The reaction was stopped with 100 μL/well of 2N H2SO4, and absorbance measured at A490 nm in a Victor^3 V 1420 multilabel counter (Perkin Elmer). The EC50 values for each compound were calculated from dose response curves from the resulting best-fit equations determined by Microsoft Excel and XLfit 4.1 software. […]
(In general: An ELISA detects its analyte on a solid surface through an enzyme-linked reagent.)

Data set [2] has as its target T1, human CYP450 2B6 (Homo sapiens, UniProt P20813).
T1 construct: purchased BD Bioscience
The data set can be described thus: CYP450 inhibition assay, 2B6. The class given is in vitro ADME. Here is the method: (§1) Compound 52 was incubated with human CYP450 cDNA-expressed isoenzymes according to the protocol (BD Bioscience). For CYP2C9, a luminogenic substrate was used with the P450-Glo™ kit. In addition, the effect of the compound on CYP2C9-mediated diclofenac metabolism was measured by LC-UV. The potential inhibitory effect of the compound on human UGT1A1 was examined using human liver microsomes and bilirubin as substrate. The metabolites (mono- and di-glucuronidated bilirubin) were measured by LC-UV.

Data set [3] concerns H1a-luc cell line (genotype 1a replicon, unselected). The data set can be described thus: Extent of resistance after selection, H1a-luc. The class given is cell-based, HCV. The following applies: selecting conc. 0 nM. Here is the method: Replicon cells (genotype 1a or 1b) were treated with various concentrations of compound 52 in the presence of G418. Treatment-emergent genotypic changes were identified by population sequencing of NS3 (both protease and helicase regions). The activity of compound 52 and other compounds was evaluated by NS5A western blot after selection or luciferase assay during and after selection.

Data set [4] deals with cardiovascular and respiratory systems of monkeys. The class given is in vivo, cynomolgus monkey. The following applies: oral doses up to 250 mg/kg. The text has this: One in vitro GLP safety pharmacology study evaluated the effects of compound 52 on hERG channel currents in voltage-clamped human embryonic kidney cells (HEK293) stably expressing the human ether-à-go-go-related gene (hERG) channel. Four in vivo GLP safety pharmacology studies evaluated the potential effects of the compound on the cardiovascular and respiratory systems in the cynomolgus monkey and on the central nervous, renal, and gastrointestinal systems in the CD-1 mouse at single oral doses up to 250 mg/kg of compound 52.

In data set [5] the target is T2, human CYP450 2D6 (Homo sapiens, UniProt P10635).
T2 construct: purchased BD Bioscience
Put plainly: CYP450 inhibition assay, 2D6. The class given is in vitro ADME. The procedure:
as §1

The target of data set [6] is T3, HCV NS3-4A Protease Genotype 4a (Hepatitis C virus genotype 4a, UniProt O39929).
T3 construct: recombinant HCV NS3-4A proteases
Put plainly: HCV protease assay, recombinant NS3-4A genotype 4a. The class given is biochemical. The following applies: mean ± SD, 3 experiments. The procedure:
The compounds were tested at a variety of concentrations in assay buffer containing a final DMSO concentration of 5%. Reactions were allowed to proceed for 60 min at room temperature and fluorescence measurements were recorded with a Tecan Infinity Spectrofluorimeter. The IC50 values were determined from the percent inhibition versus concentration data using a sigmoidal non-linear regression analysis based on four parameters with Tecan Magellan software.
Compound 52 was tested against genotypes 1a, 1b, 2a, 3a, and 4a of recombinant HCV NS3-4A proteases, along with other cellular proteases.

T3 sequence (O39929 1658-1711): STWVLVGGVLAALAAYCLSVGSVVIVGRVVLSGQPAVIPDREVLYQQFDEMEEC
T3 sequence (O39929 1027-1657): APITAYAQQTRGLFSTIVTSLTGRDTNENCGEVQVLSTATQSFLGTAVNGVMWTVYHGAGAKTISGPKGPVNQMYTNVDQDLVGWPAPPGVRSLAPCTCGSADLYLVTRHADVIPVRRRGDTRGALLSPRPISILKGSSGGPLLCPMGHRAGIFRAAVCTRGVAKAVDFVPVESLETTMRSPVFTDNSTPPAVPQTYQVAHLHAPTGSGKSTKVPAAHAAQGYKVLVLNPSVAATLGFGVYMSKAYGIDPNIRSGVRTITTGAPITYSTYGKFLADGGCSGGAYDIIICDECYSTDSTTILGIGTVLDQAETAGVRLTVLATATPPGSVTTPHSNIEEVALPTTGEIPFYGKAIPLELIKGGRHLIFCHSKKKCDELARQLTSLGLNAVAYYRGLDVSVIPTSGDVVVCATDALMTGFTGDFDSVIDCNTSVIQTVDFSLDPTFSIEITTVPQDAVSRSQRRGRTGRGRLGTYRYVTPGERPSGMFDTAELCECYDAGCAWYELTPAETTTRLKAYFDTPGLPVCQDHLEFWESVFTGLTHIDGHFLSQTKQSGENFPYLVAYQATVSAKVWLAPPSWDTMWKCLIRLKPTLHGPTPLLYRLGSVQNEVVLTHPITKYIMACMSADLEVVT
T1 sequence (P20813 whole entry): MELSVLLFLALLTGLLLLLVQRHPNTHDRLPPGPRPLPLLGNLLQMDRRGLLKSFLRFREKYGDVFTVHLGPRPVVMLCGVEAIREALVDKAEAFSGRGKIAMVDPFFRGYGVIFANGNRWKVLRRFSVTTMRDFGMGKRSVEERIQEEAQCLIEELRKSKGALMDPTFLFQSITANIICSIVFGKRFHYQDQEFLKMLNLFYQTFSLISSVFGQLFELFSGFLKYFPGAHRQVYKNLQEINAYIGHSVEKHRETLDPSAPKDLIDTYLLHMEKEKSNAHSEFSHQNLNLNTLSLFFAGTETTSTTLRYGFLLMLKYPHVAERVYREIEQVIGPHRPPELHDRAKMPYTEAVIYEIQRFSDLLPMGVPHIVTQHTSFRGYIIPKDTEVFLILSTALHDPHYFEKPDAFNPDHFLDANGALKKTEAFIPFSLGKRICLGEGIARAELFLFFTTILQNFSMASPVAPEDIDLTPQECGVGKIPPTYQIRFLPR
T2 sequence (P10635 whole entry): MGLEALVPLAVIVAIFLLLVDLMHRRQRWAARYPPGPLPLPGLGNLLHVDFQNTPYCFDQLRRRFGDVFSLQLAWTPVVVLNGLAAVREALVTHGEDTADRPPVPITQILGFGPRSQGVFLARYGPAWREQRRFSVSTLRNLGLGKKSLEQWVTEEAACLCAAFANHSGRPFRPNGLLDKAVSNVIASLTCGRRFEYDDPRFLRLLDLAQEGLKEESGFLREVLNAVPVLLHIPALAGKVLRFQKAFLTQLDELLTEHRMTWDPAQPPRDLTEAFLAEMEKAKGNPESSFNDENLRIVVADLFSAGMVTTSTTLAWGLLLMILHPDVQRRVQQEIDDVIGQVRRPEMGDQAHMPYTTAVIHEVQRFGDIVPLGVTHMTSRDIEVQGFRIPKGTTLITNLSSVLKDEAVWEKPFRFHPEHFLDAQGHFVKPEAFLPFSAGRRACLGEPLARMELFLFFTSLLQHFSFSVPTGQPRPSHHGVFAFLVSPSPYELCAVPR

As for `COc1ccc2c(O[C@H]3CCN4C(=O)N(C)CCCC/C=C\[C@@H]5C[C@@]5(C(=O)NS(=O)(=O)C5(C)CC5)NC(=O)[C@@H]4C3)cc(-c3nc(C(F)(F)F)cs3)nc2c1C` [Compound 52, 1-methyl-cyclopropanesulfonic acid{(Z)-(1S,4R,6S,18S)-18-[7-methoxy-8-methyl-2-(4-trifluoromethyl-thiazol-2-yl)-quinolin-4-yloxy]-13-methyl-2,14-dioxo-3,13,15-triaza-tricyclo[13.4.0.0*4,6*]nonadec-7-ene-4-carbonyl}amide], the “Selectivity Index” value in data set [1] (2a virus) is given as 2,568. For the same compound, the EC50 in data set [1] (Hepatitis C virus, 96 h, 2a virus (JFH-1), HPC cells, 4 days, anti-HCV core ELISA) turned out to be 4.4 ± 0.6 nM. Besides, the half-inhibitory concentration (IC50) in data set [2] is not below 10000 nM; in data set [5] it was not below 10000 nM; in data set [6], 0.81 ± 0.03 nM. Besides, the Fold-Change in data set [3] came to 1. Moreover, the “effects on the cardiovascular and respiratory systems” value in data set [4] was “no effects”.
